Results: US8012983B2, “Substituted triazolopyrazines useful for the treatment of degenerative and inflammatory diseases” (Galapagos NV, priority 2008, dated 2011)

What follows are molecules tested on MMP1 expression by activated synovial fibroblasts (RASFs) (assay: 'MMP assay': complex trigger-induced MMP1 expression by synovial fibroblasts (MMP1 ELISA)). Conditions: Homo sapiens, Fibroblast; RASFs, complex trigger, 48 hrs; read-out: MMP1 IC50.
Format: cell-based
Procedure: A 384-well format ELISA for measurement of MMP1 is developed. Various primary antibodies are tested, as well as various ELISA protocols. The following protocol is developed and validated to measure MMP1 levels in SF supernatant in 384 well plates: white Lumitrac 600 384 well plates (Greiner) are coated with 2 μg/mL anti-MMP1 antibody MAB1346 (Chemicon). The antibody is diluted in buffer 40 (1.21 g Tris base (Sigma), 0.58 g NaCl (Calbiochem) and 5 ml 10% NaN3 (Sigma) in 1 L milliQ water and adjusted to pH 8.5). After overnight incubation at 4° C., plates are washed with PBS (80 g NaCl, 2 g KCl (Sigma), 11.5 g Na2HPO4.7H2O and 2 g KH2PO4 in 10 L milliQ; pH 7.4) and blocked with 100 μL/well Casein buffer (2% Casein (VWR International) in PBS). Next day, casein buffer is removed from ELISA plates and replaced by 50 μL/well EC buffer (4 g casein, 2.13 g Na2HPO4 (Sigma), 2 g bovine albumin (Sigma), 0.69 g NaH2PO4.H2O (Sigma), 0.5 g CHAPS (Roche), 23.3 g NaCl, 4 ml 0,5 M EDTA pH 8 (Invitrogen), 5 ml 10% NaN3 in 1 L milliQ and adjusted to pH 7.0). 0.25 mM DTT (Sigma) is added to the thawed samples plates. After removal of the EC buffer, 20 μL of sample is transferred to the ELISA plates. After overnight incubation at 4° C. plates are washed twice with PBS and once with PBST (PBS with 0.05% Tween-20 (Sigma)) and incubated with 35 μL/well biotinylated anti-MMP1 antibody solution (R&D). This secondary antibody is diluted in buffer C (0.82 g NaH2PO4.H2O, 4.82 g Na2HPO4, 46.6 g NaCl, 20 g bovine albumin and 4 mL 0,5M EDTA pH 8 in 2 L milliQ and adjusted to pH 7.0) at a concentration of 5 μg/mL. After 2 h of incubation at RT, plates are washed as described above and incubated with 50 μL/well streptavidin-HRP conjugate (Biosource). Streptavidin-HRP conjugate is diluted in buffer C at a concentration of 0.25 μg/mL. After 45 min, plates are washed as described above and incubated for 5 min with 50 μL/well BM Chem ELISA Substrate (Roche). Readout is performed on the Luminoscan Ascent Luminometer (Labsystems) with an integration time of 200 msec or with an Envision reader (Perkin Elmer).
The increase of MMP1 expression by SFs upon treatment with cytokines relevant in the field of RA (TNF-α, IL1β and OSM) or a combination thereof is shown in FIG. 2 as white bars. For this experiment, SFs are seeded in 96 well plates, 3,000 cells/well. 24 h later, the medium is changed to M199 medium supplemented with 1% FBS. One day after the medium change, cytokines or combinations thereof are added to the cultures, each cytokine being added to a final concentration of 25 ng/mL. 72 h after cytokine addition, the supernatant is collected and processed in the MMP1 ELISA as described in the protocol given above. In parallel with this experiment, SFs are triggered, using the same protocol, with the supernatant of THP1 cells (2-fold diluted in M199+1% FBS) treated with the same cytokines or combinations of cytokines for 48 h in M199 medium+1% FBS. The induction of the MMP1 expression by SFs triggered with the supernatants of TNF-α-treated THP1 cells is stronger (>4.5 fold induction) as compared to the SFs triggered with recombinant TNF-α alone (3-fold induction) and almost equals the 5-fold induction obtained by a mixture of 3 purified cytokines (TNF-α, IL1βb, OSM). […] As the role of TNF-α in the RA pathogenesis is validated (TNF-α-blockers such as Infliximab and Etanercept show some efficacy in the treatment of RA patients) and the THP-1 cells are representative for monocytes/macrophages present in the joint of RA patients, the TNF-α-based trigger mixture prepared by contacting THP-1 cells with TNF-α will contain factors present in the joints of RA patients and subsequently is relevant to RA. This TNF-α-based complex trigger, further referred to as the ‘complex trigger’, will further be used as basis for the ‘MMP assay’. […]

`CC(C)N1C[C@@H]2C[C@H]1CN2c1ccc(Nc2ncc(-c3ccc4c(c3)CNC4=O)n3ncnc23)cc1` [Compound 1, 5-{8-[4-((1S,4S)-5-Isopropyl-2,5-diaza-bicyclo[2.2.1]hept-2-yl)-phenylamino]-[1,2,4]triazolo[1,5-a]pyrazin-5-yl}-2,3-dihydro-isoindol-1-one] and `CC(C)(C)N1C[C@@H]2C[C@H]1CN2c1ccc(Nc2ncc(-c3ccc4c(c3)CNC4=O)n3ncnc23)cc1` [Compound 16, 5-{8-(4-((1S,4S)-5-tert-butyl-2,5-diazabicyclo[2.2.1]heptan-2-yl)phenylamino)-[1,2,4]triazolo-[1,5-a]pyrazin-5-yl}-2,3-dihydro-isoindol-1-one] cannot be ordered by IC50: greater than 1000 nM for the first, greater than 1000 nM for the second.

`CC(C)N1C[C@@H]2C[C@H]1CN2c1ccc(Nc2ncc(-c3coc(C(N)=O)c3)n3ncnc23)cc1` [Compound 2, 4-{8-[4-((1S,4S)-5-Isopropyl-2,5-diaza-bicyclo[2.2.1]hept-2-yl)-phenylamino]-[1,2,4]triazolo[1,5-a]pyrazin-5-yl}-furan-2-carboxamide] and `CC(C)N1CC2CCC1CN2c1ccc(Nc2ncc(-c3coc(C(N)=O)c3)n3ncnc23)cc1` (stereo not drawn) [Compound 9, 4-{8-(4-(5-isopropyl-2,5-diazabicyclo[2.2.2]octan-2-yl)phenylamino)[1,2,4]-triazolo[1,5-a]pyrazin-5-yl}-furan-2-carboxamide] fall in the same range of IC50: 1 to 1000 nM for the first, 1 to 1000 nM for the second.

`CC(C)(C)N1C[C@@H]2C[C@H]1CN2c1ccc(Nc2ncc(-c3coc(C(N)=O)c3)n3ncnc23)cc1` [Compound 3, 4-{8-[4-((1S,4S)-5-tert-Butyl-2,5-diaza-bicyclo[2.2.1]hept-2-yl)-phenylamino]-[1,2,4]triazolo[1,5-a]pyrazin-5-yl}-furan-2-carboxamide] and `CC(C)(C)N1C[C@@H]2C[C@H]1CN2c1ccc(Nc2ncc(-c3coc(C(N)=O)c3)n3ccnc23)cc1` [Compound 6] cannot be ordered by IC50: greater than 1000 nM for the first, greater than 1000 nM for the second.

`CC(C)N1C[C@@H]2C[C@H]1CN2c1ccc(Nc2ncc(-c3coc(C(N)=O)c3)n3ccnc23)cc1` [Compound 4, 4-{8-[4-((1S,4S)-5-Isopropyl-2,5-diaza-bicyclo[2.2.1]hept-2-yl)-phenylamino]-imidazo[1,2-a]pyrazin-5-yl}-furan-2-carboxamide] and `CC(C)N1C[C@@H]2C[C@H]1CN2c1cccc(Nc2ncc(-c3coc(C(N)=O)c3)n3ccnc23)c1` [Compound 25, 4-(8-(3-((1S,4S)-5-isopropyl-2,5-diazabicyclo[2.2.1]heptan-2-yl)phenylamino)imidazo[1,2-a]pyrazin-5-yl)furan-2-carboxamide] cannot be ordered by IC50: greater than 1000 nM for the first, greater than 1000 nM for the second.

First: CC(C)N1C[C@@H]2C[C@H]1CN2c1ccc(Nc2ncc(-c3cc(C(N)=O)n[nH]3)n3ncnc23)cc1 [Compound 5, 5-{8-(4-((1S,4S)-5-isopropyl-2,5-diazabicyclo[2.2.1]heptan-2-yl)phenyl-amino)-[1,2,4]triazolo[1,5-a]pyrazin-5-yl}-1H-pyrazole-3-carboxamide]
Second: CCOC(=O)c1cc(-c2cnc(Nc3ccc(N4C[C@@H]5C[C@H]4CN5C(C)C)cc3)c3ncnn23)[nH]n1 [Compound 21, Ethyl 5-(8-(4-((1S,4S)-5-isopropyl-2,5-diazabicyclo[2.2.1]heptan-2-yl)phenylamino)-[1,2,4]triazolo[1,5-a]pyrazin-5-yl)-1H-pyrazole-3-carboxylate]
The IC50 of the first is lower: 1 to 1000 nM for the first, greater than 1000 nM for the second.

First: CC(C)N1C[C@@H]2C[C@H]1CN2c1ccc(Nc2ncc(-c3cc[nH]c(=O)c3)n3ccnc23)cc1 [Compound 8, 4-{8-(4-((1S,4S)-5-isopropyl-2,5-diazabicyclo[2.2.1]heptan-2-yl)phenyl-amino)imidazo[1,2-a]pyrazin-5-yl}-1H-pyridin-2-one]
Second: CC(C)N1C[C@@H]2C[C@H]1CN2c1ccc(Nc2ncc(-c3cc[nH]c(=O)c3)n3ncnc23)cc1 [Compound 20, 4-(8-(4-((1S,4S)-5-isopropyl-2,5-diazabicyclo[2.2.1]heptan-2-yl)phenylamino)-[1,2,4]triazolo[1,5-a]pyrazin-5-yl)pyridin-2(1H)-one]
The IC50 of the first is lower: 1 to 1000 nM for the first, greater than 1000 nM for the second. The first is the more potent here.

`CC(C)N1CC2CCC(C1)N2c1ccc(Nc2ncc(-c3coc(C(N)=O)c3)n3ccnc23)cc1` [Compound 11, 4-{8-(4-(3-isopropyl-3,8-diazabicyclo[3.2.1]octan-8-yl)phenylamino)-imidazo[1,2-a]pyrazin-5-yl}-furan-2-carboxamide] and `CC(C)N1C2CCC1CN(c1ccc(Nc3ncc(-c4coc(C(N)=O)c4)n4ncnc34)cc1)C2` [Compound 12, 4-{8-(4-(8-isopropyl-3,8-diazabicyclo[3.2.1]octan-3-yl)phenylamino)[1,2,4]-triazolo[1,5-a]pyrazin-5-yl}-furan-2-carboxamide] cannot be ordered by IC50: greater than 1000 nM for the first, greater than 1000 nM for the second.

`CC(C)N1C[C@@H]2C[C@H]1CN2c1ccc(Nc2ncc(-c3cc(C(N)=O)n[nH]3)n3ncnc23)cn1` [Compound 15, 5-{8-(6-((1S,4S)-5-isopropyl-2,5-diazabicyclo[2.2.1]heptan-2-yl)pyridin-3-ylamino)-[1,2,4]triazolo[1,5-a]pyrazin-5-yl}-1H-pyrazole-3-carboxylic acid amide] and `CC(C)N1C[C@@H]2C[C@H]1CN2c1ccc(Nc2ncc(-c3ccc4c(c3)CNC4=O)n3ncnc23)cn1` [Compound 18, 5-{8-(6-((1S,4S)-5-isopropyl-2,5-diazabicyclo[2.2.1]heptan-2-yl)pyridin-3-ylamino)-[1,2,4]triazolo[1,5-a]pyrazin-5-yl}-2,3-dihydro-isoindol-1-one] cannot be ordered by IC50: greater than 1000 nM for the first, greater than 1000 nM for the second.

`CC(C)(C)N1C[C@@H]2C[C@H]1CN2c1ccc(Nc2ncc(-c3cc(C(N)=O)n[nH]3)n3ncnc23)cc1` [Compound 17, 5-{8-(4-((1S,4S)-5-tert-butyl-2,5-diazabicyclo[2.2.1]heptan-2-yl)phenyl-amino)-[1,2,4]triazolo[1,5-a]pyrazin-5-yl}-1H-pyrazole-3-carboxylic acid amide] and `CC(C)N1C[C@@H]2C[C@H]1CN2c1ccc(Nc2ncc(-c3noc(C(N)=O)n3)n3ncnc23)cc1` [Compound 23, 3-(8-(4-((1S,4S)-5-isopropyl-2,5-diazabicyclo[2.2.1]heptan-2-yl)phenylamino)-[1,2,4]triazolo[1,5-a]pyrazin-5-yl)-1,2,4-oxadiazole-5-carboxamide] cannot be ordered by IC50: greater than 1000 nM for the first, greater than 1000 nM for the second.

`CCOc1cc(-c2cnc(Nc3ccc(N4C[C@@H]5C[C@H]4CN5C(C)C)cc3)c3ncnn23)ccn1` [Compound 19, 5-(2-ethoxypyridin-4-yl)-N-(4-((1S,4S)-5-isopropyl-2,5-diazabicyclo[2.2.1]heptan-2-yl)phenyl)-[1,2,4]triazolo[1,5-a]pyrazin-8-amine] and `CCOc1cc(-c2cnc(Nc3ccc(N4C[C@@H]5C[C@H]4CN5C(C)C)cc3)c3nccn23)ccn1` [Compound 22, 5-(2-ethoxypyridin-4-yl)-N-(4-((1S,4S)-5-isopropyl-2,5-diazabicyclo[2.2.1]heptan-2-yl)phenyl)imidazo[1,2-a]pyrazin-8-amine] cannot be ordered by IC50: greater than 1000 nM for the first, greater than 1000 nM for the second.

`CC(C)N1C[C@@H]2C[C@H]1CN2c1cccc(Nc2ncc(-c3coc(C(N)=O)c3)n3ncnc23)c1` [Compound 24, 4-(8-(3-((1S,4S)-5-isopropyl-2,5-diazabicyclo[2.2.1]heptan-2-yl)phenylamino)-[1,2,4]triazolo[1,5-a]pyrazin-5-yl)furan-2-carboxamide] was tested, and the IC50 was greater than 1000 nM.
